Laboratory results taken from patent publication US5807535A, “Metal complexes of hydroxyaryl containing aminocarboxylic acid chelating agents” (Australian Nuclear Science & Technology Organisation, priority 1992, dated 1998).

Key:
[1] = Biodistribution of 99mTc complexes in mice; assay type: in vivo, Balb/c mice
Source text: A series of derivatives incorporating carboxyl and phenolate donor groups (1-6) were synthesised by literature method and their radiolabelling characteristic and biological behaviour evaluated. Initial work involved an investigation of radiochemical properties of the ^99m Tc complexes of the ligands and their biodistribution in rats and mice (see Tables 1-6 and 8-12).
A typical method of radiolabelling of the chelator was achieved by dissolving the chelator in a basic solution of saline. The pH was then adjusted to approx. 6 with HCl. Excess stannous chloride was added to the resultant solution followed by one equivalent volume of sodium ^99m TcO4 (10-50 mCi/ml). Final concentration of the chelator was approx. 1 mg/ml. The efficacy of labelling was determined by ITLC-SG. For each product only one main radiochemical species was observed. Each complex was diluted to 15 μCi/100 μl with saline. […] (See FIGS. 1A and 1B).

[2] = Radiolabelling of chelators with 64Cu and 67Cu; assay type: physicochemical; settings: ligand:metal ratio 4:1, ITLC
Protocol: A typical procedure involved the dissolving Cu-67 20 μl of original stock in an acetate buffer (0.2 M; pH 4.5) to a total volume of 500 μl. To this solution was added 500 μl of the ligand (20 mg/ml) solution in acetate buffer. The mixture was then left to react at 37° C. for 20 minutes. ITLC confirmed the labelling was greater than >95%.

[3] = Complexation of (1) with 166Dy and 166Ho; assay type: physicochemical; settings: 166Dy/166Ho, within 40 mins at RT
Protocol: Radiolabelling with of (1) with ^166 Dy and ^166 Ho and the serum stability of the complex formed has been investigated. A typical procedure involves dissolving (1) (2.6 10^-4 M) in 1.0 M NaOH (150 μl) and then adding saline (669 μl). Then equal volume of ligand mixture and the ^166 Dy/^166 Ho in 0.2 M NaAc (pH to 4.5) are mixed. The complexation is monitored by ITLC-SG.

biodistribution GIT ([1]; 1 min): 3.82 % Injected dose | biodistribution bladder ([1]; 1 min): 0.12 % Injected dose | biodistribution blood ([1]; 1 min): 27.09 % Injected dose | biodistribution bone ([1]; 1 min): 5.34 % Injected dose | biodistribution heart ([1]; 1 min): 0.57 % Injected dose | biodistribution kidney ([1]; 1 min): 11.78 % Injected dose | biodistribution liver ([1]; 1 min): 12.07 % Injected dose | biodistribution lungs ([1]; 1 min): 1.54 % Injected dose | biodistribution muscle ([1]; 1 min): 23.48 % Injected dose | biodistribution skin ([1]; 1 min): 19.66 % Injected dose | biodistribution spleen ([1]; 1 min): 0.17 % Injected dose | biodistribution stomach ([1]; 1 min): 0.5 % Injected dose | biodistribution tail ([1]; 1 min): 2.42 % Injected dose | biodistribution urine ([1]; 1 min): 0 % Injected dose | biodistribution GIT ([1]; 3 min): 6.06 % Injected dose | biodistribution bladder ([1]; 3 min): 0.63 % Injected dose | biodistribution blood ([1]; 3 min): 12.02 % Injected dose | biodistribution bone ([1]; 3 min): 3.1 % Injected dose | biodistribution heart ([1]; 3 min): 0.23 % Injected dose | biodistribution kidney ([1]; 3 min): 11.23 % Injected dose | biodistribution liver ([1]; 3 min): 12.83 % Injected dose | biodistribution lungs ([1]; 3 min): 0.98 % Injected dose | biodistribution muscle ([1]; 3 min): 13.18 % Injected dose | biodistribution skin ([1]; 3 min): 19.28 % Injected dose | biodistribution spleen ([1]; 3 min): 0.1 % Injected dose | biodistribution stomach ([1]; 3 min): 0.98 % Injected dose | biodistribution tail ([1]; 3 min): 1.58 % Injected dose | biodistribution urine ([1]; 3 min): 5.62 % Injected dose | biodistribution GIT ([1]; 5 min): 4.77 % Injected dose | biodistribution bladder ([1]; 5 min): 0.68 % Injected dose | biodistribution blood ([1]; 5 min): 9.77 % Injected dose | biodistribution bone ([1]; 5 min): 2.88 % Injected dose | biodistribution heart ([1]; 5 min): 0.21 % Injected dose | biodistribution kidney ([1]; 5 min): 9.17 % Injected dose | biodistribution liver ([1]; 5 min): 11.82 % Injected dose | biodistribution lungs ([1]; 5 min): 0.77 % Injected dose | biodistribution muscle ([1]; 5 min): 9.81 % Injected dose | biodistribution skin ([1]; 5 min): 19.68 % Injected dose | biodistribution spleen ([1]; 5 min): 0.07 % Injected dose | biodistribution stomach ([1]; 5 min): 1.02 % Injected dose | biodistribution tail ([1]; 5 min): 3.76 % Injected dose | biodistribution urine ([1]; 5 min): 4.51 % Injected dose | biodistribution GIT ([1]; 10 min): 12.35 % Injected dose | biodistribution bladder ([1]; 10 min): 1.96 % Injected dose | biodistribution blood ([1]; 10 min): 5.34 % Injected dose | biodistribution bone ([1]; 10 min): 5.06 % Injected dose | biodistribution heart ([1]; 10 min): 0.12 % Injected dose | biodistribution kidney ([1]; 10 min): 5.58 % Injected dose | biodistribution liver ([1]; 10 min): 5.96 % Injected dose | biodistribution lungs ([1]; 10 min): 0.48 % Injected dose | biodistribution muscle ([1]; 10 min): 16.44 % Injected dose | biodistribution skin ([1]; 10 min): 15.68 % Injected dose | biodistribution spleen ([1]; 10 min): 0.06 % Injected dose | biodistribution stomach ([1]; 10 min): 1.16 % Injected dose | biodistribution tail ([1]; 10 min): 2.07 % Injected dose | biodistribution urine ([1]; 10 min): 11.64 % Injected dose | biodistribution GIT ([1]; 30 min): 20 % Injected dose | biodistribution bladder ([1]; 30 min): 1.23 % Injected dose | biodistribution blood ([1]; 30 min): 1.82 % Injected dose | biodistribution bone ([1]; 30 min): 1.12 % Injected dose | biodistribution heart ([1]; 30 min): 0.05 % Injected dose | biodistribution kidney ([1]; 30 min): 3.19 % Injected dose | biodistribution liver ([1]; 30 min): 3.09 % Injected dose | biodistribution lungs ([1]; 30 min): 0.2 % Injected dose | biodistribution muscle ([1]; 30 min): 4.98 % Injected dose | biodistribution skin ([1]; 30 min): 7.31 % Injected dose | biodistribution spleen ([1]; 30 min): 0.02 % Injected dose | biodistribution stomach ([1]; 30 min): 0.49 % Injected dose | biodistribution tail ([1]; 30 min): 1.53 % Injected dose | biodistribution urine ([1]; 30 min): 8.84 % Injected dose | efficiency of labelling with Cu-67 [2]: > 95% | complexation [3]: > 99%
Structure (SMILES): O=C(O)CN(CCN(CC(=O)O)CC(=O)Nc1ccccc1O)CC(=O)Nc1ccccc1O [Compound 1]
